# Data from US10836792B2, “Retro-inverso peptide inhibitors of cell migration, extracellular matrix and endothelial invasion by tumor cells” (ISTITUTO NAZIONALE TUMORI IRCCS “FONDAZIONE G. PASCALE”, priority 2016, dated 2020).
# Non-standard residues stand in square brackets, D forms with d. Residues, ends and D or L forms follow the SMILES beside them. Aib = CC(C)(N)C(=O)O
# Tests used:
# [1] = Stability in bovine serum, read out by HT1080 migration (xCELLigence); format: in vitro ADME; conditions: 10^−3 mol/L in serum 18 hrs at 37° C., then tested at 10 nM
# Protocol: FIG. 7 The retro-inverso peptide RI-3 is stable when pre-incubated in bovine (A) or human serum (B) as assessed in real time using the xCELLigence technology (A) or in Boyden chambers (B) (Example 7).
# The stability of the retro-inverso peptide RI-3 in bovine and human serum was investigated through incubation of the peptide at a 10^−3 mol/L in serum for 18 hrs at 37° C. HT1080 cells were allowed to migrate toward DMEM (CTRL), 10% FBS (None), 10% FBS plus 10 nM RI-3 or 10% FBS with 10 nM RI-3 pre-incubated with bovine serum and the impedance values were automatically monitored in real time by the xCELLigence system for 18 hrs and expressed as cell index. Data represent the means from a quadruplicate experiment representative of 2 replicates. […] The stability of RI-3 in human serum was further investigated in cell invasion experiments performed in Boyden chambers. HT1080 cells were allowed to invade matrigel for 6 hrs, toward DMEM (CTRL), 10% FBS (None), 10% FBS plus 10 nM RI-3 or 10% FBS with 10 nM RI-3 pre-incubated with human serum. For quantitative analysis of cell invasion, the basal value assessed in the absence of FBS (CTRL) was taken as 100% and all values were reported relative to that. Data are the means±SD from a triplicate experiment. *Statistical significance was calculated against None with p<0.005. […]
# HT1080 cells [2] = test: FBS-directed migration of HT1080 cells in Boyden chambers; format: cell-based, human; conditions: 10 nM peptide, 10% FBS, 4 hrs
# Protocol: FIG. 4 Retro-inverso peptides inhibit FBS-directed migration of HT1080 cells in a dose dependent manner (Example 4).
# To assess whether retro-inverso peptides exert some effect on directional cell migration, HT1080 cells were allowed to migrate for 4 hrs in Boyden chambers toward serum-free medium (CTRL), 10% FBS (None) or 10% FBS mixed with peptides, each tested at 10 nM concentration. For quantitative analysis, the basal values assessed in the absence of FBS (CTRL) was taken as 100% and all values were reported relative to that. Data are the means±SD of two independent experiments, performed in triplicate. Statistical significance calculated against None with *p<0.01, **p<0.001 (A). All retro-inverso peptides caused a reduction of FBS-directed cell migration although to different extent. Peptides RI-1, RI-2, RI-3, RI-4 and RI-5 reduced by 49%, 46%, 65%, 9% and 6%, respectively, the extent of FBS-directed cell migration. Similar results were obtained when, HT1080 cell migration was monitored in real time for 18 hrs at 37° C., 5% CO2 by the xCELLigence system. Data represent mean±SD from a quadruplicate experiment representative of 2 replicates (B). Then, HT1080 cells were allowed to migrate in Boyden chambers toward 10% FBS plus increasing concentrations of RI-3, and data were expressed as a percentage of cells migrated toward FBS alone (100%) Inhibitory effect of RI-3 is dose-dependent, it starts in the high fM range, it seems to level off in the nM range and reaches an overall 50% reduction at 1×10^−13M (C).
# HT1080 cells [3] = test: FBS-directed matrigel invasion of HT1080 cells (xCELLigence RTCA); format: cell-based, human
# Source text: FIG. 5 Peptides RI-1, RI-2, RI-3, RI-4 and RI-5 reduced by 33%, 35%, 81%, 52% and 11%, respectively, the extent of FBS-directed matrigel invasion of HT1080 cells (A), as assessed in real time using the xCELLigence RTCA technology. The inhibitory effect of RI-3 is dose-dependent (B) (Example 5).
# Cell migration is a prerequisite for cancer invasion. Therefore, we investigated whether retro-inverso peptides prevent matrigel invasion of HT1080 cells using the xCELLigence RTCA technology. Cells were seeded on polymerized matrigel and lower chambers were filled with DMEM (CTRL), growth medium (None) or growth medium with 10 nM the indicated peptides (A), or with increasing concentrations of RI-3 (B). Matrigel invasion was monitored in real time for 20 (A) or 18 (B) hrs at 37° C., 5% CO2 and the impedance values were automatically monitored as changes in cell index. Data represent means±SD from quadruplicate experiments, each representative of 2 replicates. HT1080 cells were able to cross matrigel in the presence of 10% FBS. All retro-inverso peptides caused a reduction of FBS-directed cell migration although to different extent.
# melanoma A375 = test: Matrigel invasion (xCELLigence RTCA), A375; format: cell-based, human; conditions: 10 nM, 20 hrs
# Protocol: (§1) FIG. 8 At the concentration of 10 nM the retro-inverso peptide RI-3 prevents matrigel invasion of tumor cells from human osteosarcoma Saos-2 (A), chondrosarcoma Sarc (B), melanoma A375 (C), metastatic melanoma A375M6 (D), ovarian carcinoma SKOV-3 cells (E), or primary ovarian cancer cells derived from a tumor excision (OV-53) (F), as monitored in real-time for 20 hr as changes in cell index by the xCELLigence RTCA system (Example 8).
# (§2) To investigate the ability of RI-3 to prevents matrigel invasion of tumor cells form different tissue origins, human osteosarcoma Saos-2 (A), chondrosarcoma Sarc (B) melanoma A375 (C), metastatic melanoma A375M6 (D), ovarian carcinoma SKOV-3 cells (E) or primary ovarian cancer cells derived from a tumor excision (OV-53) (F) were seeded on polymerized matrigel and allowed to invade matrigel in the absence (None) or in the presence of 10 nM RI-3. Cell invasion was monitored in real-time for 20 hrs as changes in cell index by the xCELLigence RTCA system. Data represent mean±SD from quadruplicate experiments. All cell lines were able to cross matrigel, although to a different extent. In all case RI-3 reduced matrigel invasion by about 30%, 31%, 64%, 57%, 53% and 68%, of Saos-2, Sarc, A375, A375M6, SKOV-3 and OV-53 cells, respectively.
# chondrosarcoma Sarc = test: Matrigel invasion (xCELLigence RTCA), Sarc; format: cell-based, human; conditions: 10 nM, 20 hrs
# Protocol: as §1, §2
# [4] = tested on: human osteosarcoma Saos-2; test: Matrigel invasion (xCELLigence RTCA), Saos-2; format: cell-based; conditions: 10 nM, 20 hrs
# Protocol: as §1, §2
compound,measurement,setting,value
"CC(=O)N[C@H](Cc1ccc(O)cc1)C(=O)N[C@H](CCCNC(=N)N)C(=O)NC(C)(C)C(=O)N[C@H](CCCNC(=N)N)C(N)=O [RI-3, Ac-(D)-Tyr-(D)-Arg-Aib-(D)-Arg-NH2] (Ac-[dY][dR][Aib][dR]-NH2)",stability after pre-incubation in bovine serum,[1],stable to enzymatic digestion
same,reduction of the extent of FBS-directed cell migration,HT1080 cells [2],65%
same,reduction of the extent of FBS-directed cell invasion (matrigel),"HT1080 cells [3]; 10 nM peptide, growth medium, 20 hrs",81%
same,dose dependence of the inhibition of matrigel invasion,"HT1080 cells [3]; increasing concentrations, 18 hrs",maximal effect being reached in the nanomolar range
same,reduction of matrigel invasion,melanoma A375,~64%
same,reduction of matrigel invasion,chondrosarcoma Sarc,~31%
same,reduction of matrigel invasion,[4],about 30%
